Experimental data as given in PubChem BioAssay (NCI).
Values joined by “and” are separate entries in the source; they are usually repeats but may differ in a detail not shown here. Equal entries are not always repeated.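 Results reflect a 48-hour exposure of cells in 96-well plates to compound at five concentrations. Definition used: TGI = concentration required for complete inhibition of growth.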

What follows are compounds tested on RXF-631 renal (assay: NCI tumour cell line growth inhibition, 48 h).

SMILES	TGI
COC(=O)C1=C(C)N(NC(N)=O)C2(N)N(NC(N)=O)C(C)=C(C(=O)OC)C12C(=O)OC (configuration not stated)	> 100 µM
O=C(/C=C/c1ccc(OCC(=O)N2CCN(c3ccccc3)CC2)cc1)c1ccc(Cl)cc1	> 100 µM
CCCN(CCCCC(NC(C)=O)C(=O)NCc1ccccc1)C(=O)NCCCl (configuration not stated)	> 100 µM
O=C1NC(=S)NC(=O)C1=Cc1cc2c(cc1[N+](=O)[O-])OCO2	> 100 µM
Cc1ccccc1-c1c(N)nc(NC#N)nc1C(=O)Nc1ccccc1	> 100 µM
COC(=O)C1CC(C(=O)OC)c2nc3cc(C)ccc3nc21 (configuration not stated)	> 100 µM
CCOc1ccc(N=Cc2cccc3cccnc23)cc1	> 100 µM
COC(=O)C(CCS(=O)(=O)CC(=O)C(=O)Nc1cccc(C(C)=O)c1)C(=O)OC	> 100 µM
O=C(O)CNc1c2ccccc2nc2ccccc12	> 100 µM
COc1ccc2[nH]c(-c3ccccn3)cc(=O)c2c1	> 100 µM
CCN1C2=NC(=O)N(C)C(=O)C2(Cl)C(C(SC)S(=O)(=O)c2ccc(C)cc2)c2ccccc21 (configuration not stated)	51.2 µM
Cc1cccc(-c2nc3c(C(=O)NCCN(C)C)cccc3[nH]2)c1	2.16 µM
CCCCCCCCCCCCCCCCCC(=O)OCC(CN(C)CCN(C)C)OC(=O)CCCCCCCCCCCCCCCCC (configuration not stated)	> 100 µM
Cc1cccc(C(C)(C)C)c1NC(=O)C(=O)C(C(=O)/C=C\c1ccccc1)C1OC(=O)c2ccccc21 (configuration not stated)	> 100 µM
CSc1nc(NC2OCC(OC(C)=O)C(OC(C)=O)C2OC(C)=O)c2c(OC(C)=O)c(C)c(=O)oc2n1 (configuration not stated)	> 100 µM
Clc1ccc(Cl)c2[s+]snc12	> 100 µM
CC1OC(n2ncc(=O)[nH]c2=O)C=CC1=O (configuration not stated)	32.5 µM and 43.5 µM
CC(O)/C=C/C(CCC(C)CO)C(C)C (configuration not stated)	> 100 µM
N#CC(C(=O)/C(=N/N)C(C#N)c1ccc(Cl)cc1)c1ccc(Cl)cc1 (configuration not stated)	> 100 µM

These compounds were tested on P388/ADR leukemia (assay: NCI tumour cell line growth inhibition, 48 h).

SMILES	TGI [µM]
C=C1[C@@H](C)[C@H]2[C@H](Cc3ccccc3)NC(=O)[C@]23OC(=O)/C=C/[C@H](O)CCC[C@@H](C)C/C=C/[C@H]3[C@@H]1O	73.4

The compounds below were run on P388 leukemia (assay: NCI tumour cell line growth inhibition, 48 h).

SMILES	TGI [µM]
C=C1[C@@H](C)[C@H]2[C@H](Cc3ccccc3)NC(=O)[C@]23OC(=O)/C=C/[C@H](O)CCC[C@@H](C)C/C=C/[C@H]3[C@@H]1O	> 87.1

Each compound was assayed on SN12K1 renal (assay: NCI tumour cell line growth inhibition, 48 h).

SMILES	TGI [µM]
C=C1[C@@H](C)[C@H]2[C@H](Cc3ccccc3)NC(=O)[C@]23OC(=O)/C=C/[C@H](O)CCC[C@@H](C)C/C=C/[C@H]3[C@@H]1O	41.1
